pIC50: −log10 of the molar value. Converted amounts (≈) assume the structure as drawn.
What was measured:
[1] = Microsomal stability (intrinsic clearance), human liver microsomes; format: in vitro ADME; set-up: microsomal CLint: dose or concentration left out as unconfirmed; conditions: human, liver microsomes, pH 7.4, human liver microsomes
Excerpt: (§1) A microsomal stability assay is used to measure in vitro clearance (Clint). The assay involves measuring the rate of disappearance of a compound due to its intrinsic attitude to be metabolized (“intrinsic” meaning that the disappearance is not affected by other properties like permeability, binding etc. that play a role when quantifying in vivo clearance). The microsomal stability (intrinsic clearance, Clint) and thus metabolic stability is generally given as μl/min/mg protein. It can be visualized as the volume of solution that 1 mg of microsomes is able to clear of the compound in one minute.
(§2) A Tecan Genesis workstation (RSP 150/8) was used for to perform the microsomal incubations. Analysis was carried out using a Waters ACQUITY UPLC system coupled to an ABSciex API3000 mass spectrometer. Data analysis was performed using Assay Explorer (Symyx).
(§3) Mobile phases: A=0.1% formic acid in water; B=acetonitrile
(§4) Flow rate: 0.750 mL/min; Detection: ESI, MRM; Injection: 10 μL; Column temperature: 50° C.
(§5) Potassium phosphate buffer: 0.05 M potassium phosphate buffer pH 7.4 containing 1 mM MgCl2 NADPH (nicotinamide adenine dinucleotide phosphate): 22.5 mg NADPH-Na4 in 1.8 ml potassium phosphate buffer Acetonitrile: 50 Vol % acetonitrile (1 volume acetonitrile, 1 volume water) DMSO: 20 Vol % DMSO in water Stock solution of 20 mg/ml human or mouse liver microsomes (protein)/ml in phosphate buffer Stock solution of 10 mM compound in 100% DMSO

[2] = Solubility PBS (thermodynamic solubility, shake flask method); format: physicochemical; conditions: phosphate buffer (PBS), aqueous buffer, thermodynamic from solid, PBS pH 7.4, 24 hours at 37° C.
Method: The method involves dissolving the test compound in a solvent at a constant temperature followed by HPLC determination of the concentration of the solute in the solution, which must not contain any undissolved particles.
Phosphate Buffer pH 7.4 is prepared by using 50 mL monobasic potassium phosphate solution 0.2 M in a 200-mL volumetric flask and adding 39.1 mL of sodium hydroxide solution 0.2 M and then adding water to volume.
Standard solution is prepared by weighing in a standard compound (about 1 mg) into a flask and dissolved completely in a solution of acetonitrile/methanol (1:1; V/V).
The sample of the test compound (about 2-3 mg) is weighed into a Uniprep® syringeless filter (5 mL; 0.45 μm), the 2 mL of solvent is added and the mixture is agitated for 24 hours at 37° C. The suspension is filtered after 24 hours and the concentration of dissolved substance is determined by HPLC. The result is stated as >x μg/mL, calculated from the sample weight taken and the volume of solvent used
Eluent A: Ultrapure water/Formic acid GR for analysis (999:1, V/V) Eluent B: Acetonitrile/Formic acid GR for analysis (999:1, V/V)
The result is determined quantitatively based on the external standard method through integration of the peak areas with reference to the figures obtained for the standard substance.
L[μg/mL]=a(A)*c(S)*F(A)/a(S)*F(S) Calculation: • a (A)=peak area for analyte/mL • a (S)=peak area for standard/mL • c (S)=concentration of standard (μg/mL) • F (A)=dilution factor for analyte • F (S)=dilution factor for standard

[3] = Microsomal stability (intrinsic clearance), mouse liver microsomes; format: in vitro ADME; set-up: microsomal CLint: dose or concentration left out as unconfirmed; conditions: mouse, liver microsomes, pH 7.4, mouse liver microsomes
Excerpt: as §1, §2, §3, §4, §5

[4] = target: T1, Human recombinant His-tagged PFKFB3 (Homo sapiens, UniProt Q16875); experiment: PFKFB3 IC50 determination assay (modified ADP-Glo in vitro kinase assay); format: biochemical; conditions: human recombinant PFKFB3 25 nM, ATP 20 μM, fructose-6-phosphate 2 μM, 2 h, rt; read-out: PFKFB IC50
T1 construct: His; made in house
T1 sequence (Q16875 whole entry): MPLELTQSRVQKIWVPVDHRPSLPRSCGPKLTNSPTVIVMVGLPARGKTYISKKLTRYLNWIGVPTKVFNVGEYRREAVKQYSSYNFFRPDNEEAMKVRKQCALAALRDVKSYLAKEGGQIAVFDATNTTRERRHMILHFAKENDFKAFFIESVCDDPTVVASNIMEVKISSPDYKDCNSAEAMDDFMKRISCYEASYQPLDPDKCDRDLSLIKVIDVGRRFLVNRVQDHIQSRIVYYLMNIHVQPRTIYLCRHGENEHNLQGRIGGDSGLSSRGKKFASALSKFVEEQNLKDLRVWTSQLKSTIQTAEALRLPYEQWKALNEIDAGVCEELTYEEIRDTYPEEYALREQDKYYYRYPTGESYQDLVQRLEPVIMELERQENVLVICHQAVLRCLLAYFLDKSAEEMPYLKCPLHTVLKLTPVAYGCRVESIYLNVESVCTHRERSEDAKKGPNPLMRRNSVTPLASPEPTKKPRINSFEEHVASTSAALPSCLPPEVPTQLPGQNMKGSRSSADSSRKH
Method: In vitro kinase assay used to determine IC50 values for tested inhibitors is based on a modified ADP-Glo™ system (Promega) and consists of two parts:
1. Kinase reaction—performed in optimized conditions. At this step PFKFB3 phosphorylates its substrate fructose-6-phosphate using ATP as a source of phosphate to produce fructose-2,6-bisphosphate and ADP. Reaction is performed at Km values for ATP and substrate using optimized buffer composition and time of the reaction. Human recombinant His-tagged PFKFB3 (PFKFB3 BATCH II SEC) with confirmed activity is produced and purified in-house. 2. Detection of ADP as a product of the reaction using ADP-Glo™ system. This part is conducted by using the commercially available kit ADP-Glo™ Kinase Assay (Promega, cat. No# V9103) according to manufacturer's instruction, modified by 5× dilutions of assay reagents (both ADP-Glo™ Reagent and Kinase Detection Solution). Reproducibility and reliability of this modification is confirmed in an optimization process.
Test compounds are dissolved in DMSO and then transferred to the V-bottom 96-well plate. For IC50 determination ten 10× serial dilutions starting from 100 μM are prepared.
Two mixes are prepared on ice: Mix 1—containing appropriate kinase amount in 2× reaction buffer (100 mM TRIS pH 8.0) and Mix 2—containing 2.31× concentrated substrate (Fructose-6-phosphate) and ATP in MilliQ water. 15 μL per well of Mix 1 is transferred to assay wells of 96-well white plate. Next, 2 μl of 15× concentrated test compound in DMSO is added to Mix 1 for 20 min pre-incubation, followed by addition of Mix 2 (13 μl/well). Total reaction volume is 30 μL per well. Samples are tested in duplicates. Final concentration of DMSO in the reaction is 6.7%. Conditions needed for performing PFKFB3 (PFKFB3 BATCH II SEC) in vitro kinase assay are given below:
This protocol is based on Technical Bulletin, ADP-Glo™ Kinase Assay (Promega) and is adapted to 96-well plate containing 30 μL reaction mixture:
30 μL of 5× diluted ADP-Glo™ Reagent is added to each well of 96-well plate containing 30 μL of reaction mixture. The plate is incubated for 90 minutes on a shaker at rt. 60 μL of 5× diluted Kinase Detection Solution is added to each well of 96-well plate containing 60 μL of the solution (ratio of kinase reaction volume to ADP-Glo™ Reagent volume to Kinase Detection Solution volume is maintained at 1:1:2). Plate is incubated for 40 minutes on a shaker at rt, protected from light. Luminescence is measured in the plate reader Synergy 2 (BioTek).
Luminescent readouts for compounds tested in 10 concentrations (routinely from 100 μM to […], […] serial dilutions) in duplicates, as well as for positive control, are first normalized to no-substrate negative control by its subtraction. In the next step, % of normalized positive control is calculated for each data point and plotted against test compound concentration:
% of control—percent of positive control normalized to no-substrate negative control Lumcpd—luminescence of test compound Lumneg—luminescence of no-substrate negative control Lumpos—luminescence of positive control
IC50 parameter is determined by the GraphPad Prism 5.0 software [log(inhibitor) vs. response—Variable slope (four parameters)].

SMILES	microsomal CLint [1] [µL/min/mg]	solubility at 24 h [2] [µg/mL]	microsomal CLint [3] [µL/min/mg]	pIC50 [4]
Cn1ccc2ccc(-c3cc(NC(c4cccnc4)c4ccc(=O)[nH]n4)cc4nccnc34)cc21 (single isomer, unassigned) [Example 2]	78	10 (≈ 21.8 µM)	101	7.55
COc1ccc([C@@H](Nc2cc(-c3ccc4ccn(C)c4c3)c3nccnc3c2)c2cccnc2)nn1 (single isomer, unassigned) [Example 5]	264	4 (≈ 8.45 µM)	154	8.10
Cn1cc([C@H](Nc2cc(-c3ccc4ccn(C)c4c3)c3nccnc3c2)c2cnnn2C)cn1 (single isomer, unassigned) [Example 8]	50	80 (≈ 178 µM)	29	8.28
Cn1cc([C@H](Nc2cc(-c3ccc4ccn(C)c4c3)c3nccnc3c2)c2cncn2C)cn1 (single isomer, unassigned) [Example 11]	130	4 (≈ 8.92 µM)	105	7.85
COc1ccc([C@@H](Nc2cc(-c3ccc4ccn(C)c4c3)c3nccnc3c2)c2cccnc2)cn1 [Comparative Example 4, [(S)-(6-methoxy-pyridin-3-yl)-pyridin-3-yl-methyl]-[8-(1-methyl-1H-indol-6-yl)-quinoxalin-6-yl]-amine, reference compound]	214	1 (≈ 2.12 µM)	291	8.00

From patent publication US20190256499A1, “SUBSTITUTED QUINOXALINE DERIVATIVES AS INHIBITORS OF PFKFB” (priority 2016, published 2019)
